Literature values, collected in paper PMC7456637, “Pharmacokinetic characterization of fluorocoxib D, a cyclooxygenase-2-targeted optical imaging agent for detection of cancer” (Journal of Biomedical Optics, 2020).

Assays:
[1] = tested on: COX1; conditions: cited from earlier work
[2] = tested on: RAW264.7 macrophages; set-up: method as in PMID 20430759; conditions: cited from earlier work
[3] = administrated orally; cited from earlier work
[4] = tested on: COX2; conditions: cited from earlier work
[5] = dog, in vivo, po, 2 mg/kg; cited from earlier work

SMILES	IC50 [1]	IC50 [2]	Bioavailability [3]	IC50 [4]	Elimination t1/2 [5]
COc1ccc2c(c1)c(CC(=O)O)c(C)n2C(=O)c1ccc(Cl)cc1 [Indomethacin, reference compound]	[…]	10 nM	100%	[…]	–
CCc1ccc(Nc2c(F)c(F)cc(F)c2F)c(CC(=O)O)c1 [robenacoxib]	–	–	–	–	1.1 h
